# Species on record: Rattus norvegicus
# Experiment: Open TG-GATES - Regimen: Daily Repeat
# Format: toxicity, organism-based, Sprague-Dawley
# Set-up: regimen Daily Repeat, gender Male, age 6 weeks
# Settings: in vivo, po, 300 mg/kg, route gavage, dose level Middle; for APTT / Bas / Eos / Fbg / Hb / Ht / Lym / MCH / MCHC / MCV / Mono / Neu / PT / Plat / RBC / Ret / WBC: tissue Blood; for KIDNEY_L / KIDNEY_R / KIDNEY_TOTAL: tissue Kidney; for LIVER: tissue Liver; for A/G / ALP / ALT / AST / BUN / CRE / Ca / Cl / DBIL / GLC / IP / LDH / Na / PL / RALB / TBIL / TC / TG / TP / gamma-GTP: tissue Plasma
smiles,measurement,setting,value
NC(N)=Nc1nc(CSCCC(N)=NS(N)(=O)=O)cs1 [FAMOTIDINE],TERMINAL_BW,"72 h, time 3 day",225.8 g
same,APTT,"72 h, time 3 day",21.2 s
same,Bas,"72 h, time 3 day",0%
same,Eos,"72 h, time 3 day",1%
same,Fbg,"72 h, time 3 day",222 mg/dL
same,Hb,"72 h, time 3 day",13.6 g/dL
same,Ht,"72 h, time 3 day",37.4%
same,Lym,"72 h, time 3 day",82%
same,MCH,"72 h, time 3 day",23 pg
same,MCHC,"72 h, time 3 day",36.3%
same,MCV,"72 h, time 3 day",63.4 fL
same,Mono,"72 h, time 3 day",2.6%
same,Neu,"72 h, time 3 day",13.2%
same,PT,"72 h, time 3 day",12 s
same,Plat,"72 h, time 3 day",127.7 x10_4/uL
same,RBC,"72 h, time 3 day",589.8 x10_4/ul
same,Ret,"72 h, time 3 day",5.1%
same,WBC,"72 h, time 3 day",106.3 x10_2/uL
same,KIDNEY_L,"72 h, time 3 day",1 g
same,KIDNEY_R,"72 h, time 3 day",1 g
same,KIDNEY_TOTAL,"72 h, time 3 day",2 g
same,LIVER,"72 h, time 3 day",10.4 g
same,A/G,"72 h, time 3 day",1.7
same,ALP,"72 h, time 3 day",998.8 IU/L
same,ALT,"72 h, time 3 day",33.6 IU/L
same,AST,"72 h, time 3 day",65 IU/L
same,BUN,"72 h, time 3 day",14.4 mg/dL
same,CRE,"72 h, time 3 day",0.4 mg/dL
same,Ca,"72 h, time 3 day",10.9 mg/dL
same,Cl,"72 h, time 3 day",102.6 meq/L
same,DBIL,"72 h, time 3 day",0.082 mg/dL
same,GLC,"72 h, time 3 day",186.2 mg/dL
same,IP,"72 h, time 3 day",7.8 mg/dL
same,LDH,"72 h, time 3 day",194.2 IU/L
same,Na,"72 h, time 3 day",139.2 meq/L
same,PL,"72 h, time 3 day",141.4 mg/dL
same,RALB,"72 h, time 3 day",3.5 g/dL
same,TBIL,"72 h, time 3 day",0.1 mg/dL
same,TC,"72 h, time 3 day",76.2 mg/dL
same,TG,"72 h, time 3 day",77.6 mg/dL
same,TP,"72 h, time 3 day",5.6 g/dL
same,gamma-GTP,"72 h, time 3 day",1.2 IU/L
same,TERMINAL_BW,"[…], time 7 day",261.1 g
same,TERMINAL_BW,"[…], time 14 day",316.2 g
same,TERMINAL_BW,"[…], time 28 day",394.2 g
same,APTT,"[…], time 7 day",20.3 s
same,Bas,"[…], time 7 day",0%
same,Eos,"[…], time 7 day",1%
same,Fbg,"[…], time 7 day",225 mg/dL
same,Hb,"[…], time 7 day",13.9 g/dL
same,Ht,"[…], time 7 day",38.8%
same,Lym,"[…], time 7 day",79.2%
same,MCH,"[…], time 7 day",22.1 pg
same,MCHC,"[…], time 7 day",35.8%
same,MCV,"[…], time 7 day",61.7 fL
same,Mono,"[…], time 7 day",2.2%
same,Neu,"[…], time 7 day",16%
same,PT,"[…], time 7 day",12 s
same,Plat,"[…], time 7 day",114.6 x10_4/uL
same,RBC,"[…], time 7 day",629.6 x10_4/ul
same,Ret,"[…], time 7 day",5.2%
same,WBC,"[…], time 7 day",85.9 x10_2/uL
same,APTT,"[…], time 14 day",19.7 s
same,Bas,"[…], time 14 day",0%
same,Eos,"[…], time 14 day",0.8%
same,Fbg,"[…], time 14 day",224 mg/dL
same,Hb,"[…], time 14 day",14.4 g/dL
same,Ht,"[…], time 14 day",42%
same,Lym,"[…], time 14 day",79%
same,MCH,"[…], time 14 day",20.9 pg
same,MCHC,"[…], time 14 day",34.3%
same,MCV,"[…], time 14 day",60.9 fL
same,Mono,"[…], time 14 day",2.8%
same,Neu,"[…], time 14 day",16%
same,PT,"[…], time 14 day",12.4 s
same,Plat,"[…], time 14 day",120.5 x10_4/uL
same,RBC,"[…], time 14 day",689.4 x10_4/ul
same,Ret,"[…], time 14 day",4.3%
same,WBC,"[…], time 14 day",117 x10_2/uL
same,APTT,"[…], time 28 day",20.2 s
same,Bas,"[…], time 28 day",0%
same,Eos,"[…], time 28 day",1.4%
same,Fbg,"[…], time 28 day",220.6 mg/dL
same,Hb,"[…], time 28 day",15.4 g/dL
same,Ht,"[…], time 28 day",43.3%
same,Lym,"[…], time 28 day",82.2%
same,MCH,"[…], time 28 day",20 pg
same,MCHC,"[…], time 28 day",35.4%
same,MCV,"[…], time 28 day",56.4 fL
same,Mono,"[…], time 28 day",1.6%
same,Neu,"[…], time 28 day",13.4%
same,PT,"[…], time 28 day",12.5 s
same,Plat,"[…], time 28 day",100.3 x10_4/uL
same,RBC,"[…], time 28 day",768.2 x10_4/ul
same,Ret,"[…], time 28 day",2.3%
same,WBC,"[…], time 28 day",116.4 x10_2/uL
same,KIDNEY_L,"[…], time 7 day",1.2 g
same,KIDNEY_R,"[…], time 7 day",1.1 g
same,KIDNEY_TOTAL,"[…], time 7 day",2.3 g
same,KIDNEY_L,"[…], time 14 day",1.2 g
same,KIDNEY_R,"[…], time 14 day",1.2 g
same,KIDNEY_TOTAL,"[…], time 14 day",2.4 g
same,KIDNEY_L,"[…], time 28 day",1.4 g
same,KIDNEY_R,"[…], time 28 day",1.4 g
same,KIDNEY_TOTAL,"[…], time 28 day",2.8 g
same,LIVER,"[…], time 7 day",12.6 g
same,LIVER,"[…], time 14 day",13.4 g
same,LIVER,"[…], time 28 day",14.9 g
same,A/G,"[…], time 7 day",1.5
same,ALP,"[…], time 7 day",921.4 IU/L
same,ALT,"[…], time 7 day",34.2 IU/L
same,AST,"[…], time 7 day",65.2 IU/L
same,BUN,"[…], time 7 day",15.6 mg/dL
same,CRE,"[…], time 7 day",0.4 mg/dL
same,Ca,"[…], time 7 day",10.8 mg/dL
same,Cl,"[…], time 7 day",103.4 meq/L
same,DBIL,"[…], time 7 day",0.092 mg/dL
same,GLC,"[…], time 7 day",192.8 mg/dL
same,IP,"[…], time 7 day",7.6 mg/dL
same,LDH,"[…], time 7 day",183.4 IU/L
same,Na,"[…], time 7 day",141.4 meq/L
same,PL,"[…], time 7 day",161 mg/dL
same,RALB,"[…], time 7 day",3.4 g/dL
same,TBIL,"[…], time 7 day",0.1 mg/dL
same,TC,"[…], time 7 day",83.8 mg/dL
same,TG,"[…], time 7 day",111.4 mg/dL
same,TP,"[…], time 7 day",5.7 g/dL
same,gamma-GTP,"[…], time 7 day",1.4 IU/L
same,A/G,"[…], time 14 day",1.6
same,ALP,"[…], time 14 day",907.6 IU/L
same,ALT,"[…], time 14 day",40.2 IU/L
same,AST,"[…], time 14 day",66 IU/L
same,BUN,"[…], time 14 day",16 mg/dL
same,CRE,"[…], time 14 day",0.5 mg/dL
same,Ca,"[…], time 14 day",10.6 mg/dL
same,Cl,"[…], time 14 day",103.2 meq/L
same,DBIL,"[…], time 14 day",0.1 mg/dL
same,GLC,"[…], time 14 day",208.2 mg/dL
same,IP,"[…], time 14 day",7.3 mg/dL
same,LDH,"[…], time 14 day",151.6 IU/L
same,Na,"[…], time 14 day",140.2 meq/L
same,PL,"[…], time 14 day",146.6 mg/dL
same,RALB,"[…], time 14 day",3.5 g/dL
same,TBIL,"[…], time 14 day",0.2 mg/dL
same,TC,"[…], time 14 day",76 mg/dL
same,TG,"[…], time 14 day",97.4 mg/dL
same,TP,"[…], time 14 day",5.7 g/dL
same,gamma-GTP,"[…], time 14 day",2.2 IU/L
same,A/G,"[…], time 28 day",1.3
same,ALP,"[…], time 28 day",609.6 IU/L
same,ALT,"[…], time 28 day",35.2 IU/L
same,AST,"[…], time 28 day",66.8 IU/L
same,BUN,"[…], time 28 day",16.6 mg/dL
same,CRE,"[…], time 28 day",0.5 mg/dL
same,Ca,"[…], time 28 day",10.4 mg/dL
same,Cl,"[…], time 28 day",103.4 meq/L
same,DBIL,"[…], time 28 day",0.072 mg/dL
same,GLC,"[…], time 28 day",217.8 mg/dL
same,IP,"[…], time 28 day",7 mg/dL
same,LDH,"[…], time 28 day",160.6 IU/L
same,Na,"[…], time 28 day",141 meq/L
same,PL,"[…], time 28 day",133 mg/dL
same,RALB,"[…], time 28 day",3.3 g/dL
same,TBIL,"[…], time 28 day",0.1 mg/dL
same,TC,"[…], time 28 day",68.6 mg/dL
same,TG,"[…], time 28 day",86.2 mg/dL
same,TP,"[…], time 28 day",5.9 g/dL
same,gamma-GTP,"[…], time 28 day",1 IU/L

# From ChEMBL document CHEMBL3885861, “Open TG-GATES”
